Laboratory results taken from ChEMBL document CHEMBL1201862, “PubChem BioAssay data set” (2004).
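Cultured in 96-well plates, cells were exposed to test compound for 48 hours across five concentrations. At the GI50, growth is halved.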 Activity calls are given as the source filed them. Rule as the data show it: active = GI50 up to about 1.1 µM and inactive = higher.

Assays:
Assay in all cases: inhibition of tumour cell growth, NCI panel, 48 h
786-0 = tested on: 786-0
A498 = tested on: A498
A549 = tested on: A549
ACHN = tested on: ACHN
CAKI-1 = tested on: CAKI-1
CCRF-CEM = tested on: CCRF-CEM
COLO 205 = tested on: COLO 205
DLD-1 = tested on: DLD-1
DMS-273 = tested on: DMS-273
EKVX = tested on: EKVX
HCT-116 = tested on: HCT-116
HCT-15 = tested on: HCT-15
HL-60 = tested on: HL-60
HOP-62 = tested on: HOP-62
HOP-92 = tested on: HOP-92
HT-29 = tested on: HT-29
IGROV-1 = tested on: IGROV-1
K562 = tested on: K562
KM-20L2 = tested on: KM-20L2
LOX IMVI = tested on: LOX IMVI
LXFL 529 = tested on: LXFL 529
M14 = tested on: M14
M19-MEL = tested on: M19-MEL
MOLT-4 = tested on: MOLT-4
Malme-3M = tested on: Malme-3M
NCI-H226 = tested on: NCI-H226
NCI-H23 = tested on: NCI-H23
NCI-H460 = tested on: NCI-H460
NCI-H522 = tested on: NCI-H522
OVCAR-3 = tested on: OVCAR-3
OVCAR-4 = tested on: OVCAR-4
OVCAR-5 = tested on: OVCAR-5
OVCAR-8 = tested on: OVCAR-8
RXF 393 = tested on: RXF 393
SF-268 = tested on: SF-268
SF-295 = tested on: SF-295
SF-539 = tested on: SF-539
SK-MEL-28 = tested on: SK-MEL-28
SK-MEL-2 = tested on: SK-MEL-2
SK-MEL-5 = tested on: SK-MEL-5
SK-OV-3 = tested on: SK-OV-3
SN12C = tested on: SN12C
SNB-19 = tested on: SNB-19
SNB-75 = tested on: SNB-75
SNB-78 = tested on: SNB-78
SW-620 = tested on: SW-620
TK-10 = tested on: TK-10
U-251 = tested on: U-251
UACC-257 = tested on: UACC-257
UACC-62 = tested on: UACC-62
UO-31 = tested on: UO-31
XF498 = tested on: XF498
HCC 2998 = tested on: HCC 2998
RPMI-8226 = tested on: RPMI-8226

With COc1ccc(C2C(Cl)C(=O)N2NC(=O)c2ccc(NC(C)=O)cc2)cc1 (stereo not given) as the compound, how does the GI50 (786-0) read?
The GI50 was > 100 µM (inactive).

And the GI50 (A498)?
Its GI50 is > 100 µM (inactive).

And the GI50 (A549)?
Its GI50 is > 100 µM (inactive).

And the GI50 (ACHN)?
Its GI50 is > 100 µM (inactive).

And the GI50 (CAKI-1)?
The GI50 was > 100 µM (inactive).

What about the GI50 (CCRF-CEM) of the same compound?
The GI50 was > 100 µM (inactive).

And the GI50 (COLO 205)?
Its GI50 is > 100 µM (inactive).

And the GI50 (DLD-1)?
The GI50 was > 100 µM (inactive).

What about the GI50 (DMS-273) of the same compound?
The GI50 was > 100 µM (inactive).

And the GI50 (EKVX)?
Its GI50 is > 100 µM (inactive).

And the GI50 (HCT-116)?
Its GI50 is > 100 µM (inactive).

And the GI50 (HCT-15)?
Its GI50 is > 100 µM.

What about the GI50 (HL-60) of the same compound?
The GI50 was > 100 µM (inactive).

And the GI50 (HOP-62)?
The GI50 was > 100 µM (inactive).

And the GI50 (HOP-92)?
Its GI50 is > 100 µM (inactive).

And the GI50 (HT-29)?
The GI50 was > 100 µM (inactive).

And the GI50 (IGROV-1)?
The GI50 was > 100 µM (inactive).

And the GI50 (K562)?
Its GI50 is > 100 µM (inactive).

And the GI50 (KM-20L2)?
Its GI50 is > 100 µM (inactive).

And the GI50 (LOX IMVI)?
Its GI50 is > 100 µM (inactive).

And the GI50 (LXFL 529)?
Its GI50 is > 100 µM (inactive).

What about the GI50 (M14) of the same compound?
Its GI50 is > 100 µM (inactive).

And the GI50 (M19-MEL)?
Its GI50 is > 100 µM (inactive).

What about the GI50 (MOLT-4) of the same compound?
The GI50 was > 100 µM (inactive).

What about the GI50 (Malme-3M) of the same compound?
Its GI50 is > 100 µM (inactive).

What about the GI50 (NCI-H226) of the same compound?
The GI50 was > 100 µM (inactive).

What about the GI50 (NCI-H23) of the same compound?
The GI50 was > 100 µM (inactive).

And the GI50 (NCI-H460)?
Its GI50 is > 100 µM (inactive).

And the GI50 (NCI-H522)?
Its GI50 is > 100 µM (inactive).

What about the GI50 (OVCAR-3) of the same compound?
Its GI50 is > 100 µM (inactive).

What about the GI50 (OVCAR-4) of the same compound?
The GI50 was > 100 µM (inactive).

And the GI50 (OVCAR-5)?
The GI50 was > 100 µM (inactive).

And the GI50 (OVCAR-8)?
The GI50 was > 100 µM (inactive).

And the GI50 (RXF 393)?
The GI50 was > 100 µM (inactive).

What about the GI50 (SF-268) of the same compound?
The GI50 was > 100 µM (inactive).

What about the GI50 (SF-295) of the same compound?
The GI50 was > 100 µM (inactive).

What about the GI50 (SF-539) of the same compound?
Its GI50 is > 100 µM (inactive).

What about the GI50 (SK-MEL-28) of the same compound?
The GI50 was > 100 µM (inactive).

And the GI50 (SK-MEL-2)?
The GI50 was > 100 µM (inactive).

And the GI50 (SK-MEL-5)?
Its GI50 is > 100 µM (inactive).

And the GI50 (SK-OV-3)?
Its GI50 is > 100 µM (inactive).

And the GI50 (SN12C)?
The GI50 was > 100 µM (inactive).

What about the GI50 (SNB-19) of the same compound?
Its GI50 is > 100 µM (inactive).

And the GI50 (SNB-75)?
Its GI50 is > 100 µM (inactive).

What about the GI50 (SNB-78) of the same compound?
Its GI50 is > 100 µM (inactive).

What about the GI50 (SW-620) of the same compound?
The GI50 was > 100 µM (inactive).

What about the GI50 (TK-10) of the same compound?
The GI50 was > 100 µM (inactive).

What about the GI50 (U-251) of the same compound?
Its GI50 is > 100 µM (inactive).

What about the GI50 (UACC-257) of the same compound?
Its GI50 is > 100 µM (inactive).

What about the GI50 (UACC-62) of the same compound?
Its GI50 is > 100 µM (inactive).

And the GI50 (UO-31)?
Its GI50 is > 100 µM (inactive).

And the GI50 (XF498)?
Its GI50 is > 100 µM (inactive).

For Cc1cnc(-c2ccccc2)o1, which GI50 (786-0) is on record?
The GI50 was > 100 µM (inactive).

What about the GI50 (CCRF-CEM) of the same compound?
The GI50 was > 100 µM (inactive).

And the GI50 (DLD-1)?
Its GI50 is > 100 µM (inactive).

What about the GI50 (DMS-273) of the same compound?
The GI50 was 52.6 µM (inactive).

And the GI50 (HCC 2998)?
Its GI50 is > 100 µM (inactive).

And the GI50 (HCT-116)?
The GI50 was > 100 µM (inactive).

And the GI50 (HL-60)?
Its GI50 is > 100 µM (inactive).

And the GI50 (HOP-62)?
Its GI50 is > 100 µM (inactive).

And the GI50 (K562)?
The GI50 was > 100 µM (inactive).

What about the GI50 (KM-20L2) of the same compound?
Its GI50 is > 100 µM (inactive).

What about the GI50 (LOX IMVI) of the same compound?
Its GI50 is > 100 µM (inactive).

What about the GI50 (LXFL 529) of the same compound?
The GI50 was > 100 µM (inactive).

And the GI50 (M14)?
Its GI50 is > 100 µM (inactive).

What about the GI50 (MOLT-4) of the same compound?
Its GI50 is > 100 µM (inactive).

And the GI50 (NCI-H226)?
The GI50 was > 100 µM (inactive).

And the GI50 (NCI-H23)?
The GI50 was > 100 µM (inactive).

And the GI50 (NCI-H460)?
The GI50 was > 100 µM (inactive).

What about the GI50 (NCI-H522) of the same compound?
The GI50 was > 100 µM (inactive).

And the GI50 (OVCAR-4)?
The GI50 was > 100 µM (inactive).

What about the GI50 (RPMI-8226) of the same compound?
Its GI50 is > 100 µM (inactive).

What about the GI50 (RXF 393) of the same compound?
Its GI50 is > 100 µM (inactive).

What about the GI50 (SF-539) of the same compound?
Its GI50 is > 100 µM (inactive).

What about the GI50 (SK-MEL-28) of the same compound?
The GI50 was > 100 µM (inactive).

And the GI50 (SN12C)?
Its GI50 is > 10 µM (inactive).

What about the GI50 (SNB-19) of the same compound?
Its GI50 is > 100 µM (inactive).

What about the GI50 (SNB-75) of the same compound?
Its GI50 is > 100 µM (inactive).

And the GI50 (SNB-78)?
The GI50 was > 100 µM (inactive).

What about the GI50 (U-251) of the same compound?
Its GI50 is > 100 µM (inactive).
